Test results taken from publication PMC7101335, “Aryl-alkyl-lysines: Novel agents for treatment of C. difficile infection” (Scientific Reports, 2020).
In brackets after ≈: the same amount, converted by molar mass. Where two headings read alike, the source gives them in different places.

What was measured:
[1] = system: Clostridium difficile; test: Broth microdilution MIC against Clostridium difficile strains; assay type: cell-based; settings: Clostridioides difficile
Procedure: The broth microdilution assay was utilized following the Clinical and Laboratory Standards Institute (CLSI) guidelines with slight modifications. Briefly, C. difficile strains were grown on anaerobic blood agar plates (Becton Dickinson, BD) and suspended in brain heart infusion supplemented broth (Brain heart infusion medium, BD, supplemented with yeast extract, L-cysteine, Vitamin K1 and Hemin, Sigma) to achieve a bacterial concentration of ~10^5 CFU/ml. The bacterial suspension was seeded in 96-well plates containing drugs/compounds, in duplicate, at the required concentration. Plates were then incubated at 37 °C anaerobically for 48 hours. MICs reported are the lowest concentration of each agent that inhibited the visual growth of bacteria.

[2] = system: human ileocecal colorectal adenocarcinoma cell line (HRT-18); test: Cytotoxicity, MTS assay, HRT-18 cells; assay type: cell-based; settings: 32 µg mL^−1, 2 hours
Procedure: Briefly, ~2 × 10^4 cells suspended in 100 µL of RPMI-1640 supplemented with 10% horse serum were seeded in a 96-well plate and incubated at 37 °C with 5% CO2. The cells were cultured for 24 hours until reaching ~90% confluency. The cells were further incubated with the aforementioned concentrations of the compounds for 2 hours. Afterwards, culture media were discarded and the cells in each well were washed with PBS and 100 µL of cell culture media were added prior to addition of the assay reagent MTS 3-(4,5-dimethylthiazol-2-yl)-5-(3-carboxymethoxyphenyl)-2-(4-sulfophenyl)-2H-tetrazolium) (Promega). The plates were incubated for 4 hours at 37 °C in a humidified 5% CO2 atmosphere. The absorbance was recorded at 490 nm and the corrected absorbance readings (actual absorbance readings for each treatment subtracted from background absorbance) were taken using a kinetic ELISA microplate reader (SpectraMax i3x, Molecular Devices, Sunnyvale, CA, USA). The quantity of viable cells after treatment with each compound was expressed as a percentage of the control, DMSO. Asterisk (*) denotes a significant difference from the DMSO-treated cells using 2-way analysis of variance (ANOVA) followed by Dunnett’s pairwise comparison.

[3] = system: vancomycin-resistant and vancomycin-susceptible strains of Enterococcus; test: Broth microdilution MIC against Enterococcus strains (E. faecalis and E. faecium, summary in text); assay type: cell-based; settings: all E. faecalis and E. faecium strains tested, vancomycin-resistant and -sensitive
[4] = system: E. faecalis; test: Broth microdilution MIC against E. faecalis strains; assay type: cell-based; settings: Enterococcus faecalis, read-out: Minimum inhibitory concentration
[5] = system: E. faecium; test: Broth microdilution MIC against E. faecium strains; assay type: cell-based; settings: Enterococcus faecium, read-out: Minimum inhibitory concentration
[6] = Caco-2 bidirectional permeability assay; assay type: in vitro ADME, human; settings: human, Caco-2; for efflux ratio at 2 h: Re = (Papp B→A)/(Papp A→B); for Papp A→B at 2 h: apical (pH 6.5) to basolateral (pH 7.4); for Papp A→B at 2 h / Papp B→A at 2 h: two hours; for Papp B→A at 2 h: basolateral to apical
Procedure: The Caco-2 bidirectional permeability assay was conducted as described in previous reports[29],[30],[41],[42]. The Caco-2 cell line is similar to human enterocytes and expresses P-glycoprotein and other relevant metabolic enzymes that affect absorption of orally-administered xenobiotics across the intestinal mucosa[34],[43],[44]. Caco-2 cells were grown in tissue culture flasks, trypsinized (by rinsing cells with phosphate-buffered saline and then treating with trypsin-EDTA for 5–10 minutes at 37 °C with 5% CO2 until cells detached), suspended in Dulbecco’s Modified Eagle Medium with 10% fetal bovine serum, 1% nonessential amino acids and penicillin-streptomycin, and then seeded onto wells of a Millipore 96-well Caco-2 plate. Cells were cultured at 37 °C with 5% CO2 until confluent (approximately three weeks) and media was changed at relevant time points. For Apical to Basolateral (A → B) permeability, the test article was added to the apical (A) compartment and the amount of permeation (Papp, as calculated below) to the basolateral (B) compartment was determined; for Basolateral to Apical (B → A) permeability, the test article was added to the B compartment and the amount of permeation to the A compartment was determined. […] Caco-2 cells were incubated with these buffers for two hours, and the receiver side buffer was removed for analysis by LC/MS/MS. To verify the tight junctions and integrity of Caco-2 cell monolayers, aliquots of the cell buffers were analyzed by fluorescence (Lucifer yellow transport ≤ 2%). Any deviations from control values are reported. Data are expressed as permeability (Papp) = (dQ/dt)/(C0A) where dQ/dt is the rate of permeation, C0 is the initial concentration of test agent, and A is the area of the monolayer.

[7] = C. difficile Isolate 1 (NR-13427), read-out: Minimum inhibitory concentration
[8] = C. difficile Isolate 2 (NR-13428), read-out: Minimum inhibitory concentration
[9] = C. difficile Isolate 4 (NR-13430), read-out: Minimum inhibitory concentration
[10] = C. difficile Isolate 5 (NR-13431), read-out: Minimum inhibitory concentration
[11] = C. difficile Isolate 6 (NR-13432), read-out: Minimum inhibitory concentration
[12] = C. difficile Isolate 9 (NR-13435), read-out: Minimum inhibitory concentration
[13] = C. difficile Isolate 10 (NR-13436), read-out: Minimum inhibitory concentration
[14] = C. difficile P2 (NR-32883), read-out: Minimum inhibitory concentration
[15] = C. difficile P4 (NR-32889), read-out: Minimum inhibitory concentration
[16] = C. difficile P8 (NR-32888), read-out: Minimum inhibitory concentration
[17] = C. difficile P13 (NR-32891), read-out: Minimum inhibitory concentration
[18] = C. difficile P15 (NR-32892), read-out: Minimum inhibitory concentration
[19] = C. difficile P20 (NR-32896), read-out: Minimum inhibitory concentration
[20] = C. difficile P21 (NR-32897), read-out: Minimum inhibitory concentration
[21] = C. difficile P29 (NR-32903), read-out: Minimum inhibitory concentration
[22] = C. difficile strains P8, P13 and Isolate 10
[23] = across all tested strains of C. difficile
[24] = E. faecalis SF28073 (vancomycin-resistant)
[25] = E. faecium E417 (vancomycin-resistant)

Structure (SMILES) | MIC [1, 7] | MIC [1, 8] | MIC [1, 9] | MIC [1, 10] | MIC [1, 11] | MIC [1, 12] | MIC [1, 13] | MIC [1, 14] | MIC [1, 15] | MIC [1, 16] | MIC [1, 17] | MIC [1, 18] | MIC [1, 19] | MIC [1, 20] | MIC [1, 21] | MIC [1, 22] | toxicity to HRT-18 cells [2] | MIC [3] | MIC [1, 23] | MIC ([4]; E. faecalis B3196) | other results
Cc1ncc([N+](=O)[O-])n1CCO [Metronidazole, reference compound] | 0.25 µg/mL (≈ 1.46 µM) | 0.0625 µg/mL (≈ 0.365 µM) | 0.5 µg/mL (≈ 2.92 µM) | 0.25 µg/mL (≈ 1.46 µM) | 0.125 µg/mL (≈ 0.73 µM) | 0.0625 µg/mL (≈ 0.365 µM) | 0.125 µg/mL (≈ 0.73 µM) | 0.0625 µg/mL (≈ 0.365 µM) | 0.125 µg/mL (≈ 0.73 µM) | 0.125 µg/mL (≈ 0.73 µM) | 0.25 µg/mL (≈ 1.46 µM) | 0.0625 µg/mL (≈ 0.365 µM) | 0.25 µg/mL (≈ 1.46 µM) | 0.125 µg/mL (≈ 0.73 µM) | 0.0625 µg/mL (≈ 0.365 µM) | < 0.25 µg/mL |  |  |  |  | 
CCCCCCN(Cc1cccc2ccccc12)C(=O)[C@@H](N)CCCCN [NCK-6] | 64 µg/mL (≈ 173 µM) | 64 µg/mL (≈ 173 µM) | 64 µg/mL (≈ 173 µM) | 32 µg/mL (≈ 86.6 µM) | 64 µg/mL (≈ 173 µM) | 32 µg/mL (≈ 86.6 µM) | 64 µg/mL (≈ 173 µM) | 64 µg/mL (≈ 173 µM) | 64 µg/mL (≈ 173 µM) | 64 µg/mL (≈ 173 µM) | 64 µg/mL (≈ 173 µM) | 64 µg/mL (≈ 173 µM) | 64 µg/mL (≈ 173 µM) | 32 µg/mL (≈ 86.6 µM) | 32 µg/mL (≈ 86.6 µM) |  | survived | 64 to 128 µg/mL (≈ 173 to 346 µM) | 32 µg/mL (≈ 86.6 µM) | 128 µg/mL (≈ 346 µM) | MIC ([4]; E. faecalis B3286): 128 µg/mL (≈ 346 µM); MIC ([4]; E. faecalis B3336): 128 µg/mL (≈ 346 µM); MIC ([4]; E. faecalis SF24397): 128 µg/mL (≈ 346 µM); MIC [4, 24]: 128 µg/mL (≈ 346 µM); MIC [5, 25]: 64 µg/mL (≈ 173 µM); MIC ([5]; E. faecium E1071): 128 µg/mL (≈ 346 µM); MIC ([5]; E. faecium UAA714): 128 µg/mL (≈ 346 µM)
CCCCCCCCN(Cc1cccc2ccccc12)C(=O)[C@@H](N)CCCCN [NCK-8] | 8 µg/mL (≈ 20.1 µM) | 8 µg/mL (≈ 20.1 µM) | 8 µg/mL (≈ 20.1 µM) | 2 µg/mL (≈ 5.03 µM) | 8 µg/mL (≈ 20.1 µM) | 4 µg/mL (≈ 10.1 µM) | 8 µg/mL (≈ 20.1 µM) | 4 µg/mL (≈ 10.1 µM) | 8 µg/mL (≈ 20.1 µM) | 8 µg/mL (≈ 20.1 µM) | 8 µg/mL (≈ 20.1 µM) | 8 µg/mL (≈ 20.1 µM) | 8 µg/mL (≈ 20.1 µM) | 4 µg/mL (≈ 10.1 µM) | 8 µg/mL (≈ 20.1 µM) |  | survived | 8 to 32 µg/mL (≈ 20.1 to 80.5 µM) | 2 to 8 µg/mL (≈ 5.03 to 20.1 µM) | 16 µg/mL (≈ 40.2 µM) | MIC ([4]; E. faecalis B3286): 32 µg/mL (≈ 80.5 µM); MIC ([4]; E. faecalis B3336): 16 µg/mL (≈ 40.2 µM); MIC ([4]; E. faecalis SF24397): 16 µg/mL (≈ 40.2 µM); MIC [4, 24]: 16 µg/mL (≈ 40.2 µM); MIC [5, 25]: 8 µg/mL (≈ 20.1 µM); MIC ([5]; E. faecium E1071): 16 µg/mL (≈ 40.2 µM); MIC ([5]; E. faecium UAA714): 16 µg/mL (≈ 40.2 µM)
CNC(=C[N+](=O)[O-])NCCSCc1ccc(CN(C)C)o1 [Ranitidine] |  |  |  |  |  |  |  |  |  |  |  |  |  |  |  |  |  |  |  |  | efflux ratio at 2 h [6]: 5.18; Papp A→B at 2 h [6]: 0.186 ×10⁻⁶ cm/s; Papp B→A at 2 h [6]: 0.942 ×10⁻⁶ cm/s
CN[C@H](CC(C)C)C(=O)N[C@H]1C(=O)N[C@@H](CC(N)=O)C(=O)N[C@H]2C(=O)N[C@H]3C(=O)N[C@H](C(=O)N[C@H](C(=O)O)c4cc(O)cc(O)c4-c4cc3ccc4O)[C@H](O)c3ccc(c(Cl)c3)Oc3cc2cc(c3O[C@@H]2O[C@H](CO)[C@@H](O)[C@H](O)[C@H]2O[C@H]2C[C@](C)(N)[C@H](O)[C@H](C)O2)Oc2ccc(cc2Cl)[C@H]1O [Vancomycin, reference compound] |  |  |  |  |  |  |  |  |  |  |  |  |  |  |  | 0.5 µg/mL (≈ 0.345 µM) |  |  |  |  | MIC ([1]; read-out: Minimum inhibitory concentration, C. difficile Isolate 1 (NR-13427)): 1 µg/mL (≈ 0.69 µM); MIC ([1]; read-out: Minimum inhibitory concentration, C. difficile Isolate 2 (NR-13428)): 1 µg/mL (≈ 0.69 µM); MIC ([1]; read-out: Minimum inhibitory concentration, C. difficile Isolate 4 (NR-13430)): 0.5 µg/mL (≈ 0.345 µM); MIC ([1]; read-out: Minimum inhibitory concentration, C. difficile Isolate 5 (NR-13431)): 0.5 µg/mL (≈ 0.345 µM); MIC ([1]; read-out: Minimum inhibitory concentration, C. difficile Isolate 6 (NR-13432)): 0.5 µg/mL (≈ 0.345 µM); MIC ([1]; read-out: Minimum inhibitory concentration, C. difficile Isolate 9 (NR-13435)): 0.5 µg/mL (≈ 0.345 µM); MIC ([1]; read-out: Minimum inhibitory concentration, C. difficile Isolate 10 (NR-13436)): 0.5 µg/mL (≈ 0.345 µM); MIC ([1]; read-out: Minimum inhibitory concentration, C. difficile P2 (NR-32883)): 0.5 µg/mL (≈ 0.345 µM); MIC ([1]; read-out: Minimum inhibitory concentration, C. difficile P4 (NR-32889)): 2 µg/mL (≈ 1.38 µM); MIC ([1]; read-out: Minimum inhibitory concentration, C. difficile P8 (NR-32888)): 0.5 µg/mL (≈ 0.345 µM); MIC ([1]; read-out: Minimum inhibitory concentration, C. difficile P13 (NR-32891)): 0.5 µg/mL (≈ 0.345 µM); MIC ([1]; read-out: Minimum inhibitory concentration, C. difficile P15 (NR-32892)): 0.5 µg/mL (≈ 0.345 µM); MIC ([1]; read-out: Minimum inhibitory concentration, C. difficile P20 (NR-32896)): 1 µg/mL (≈ 0.69 µM); MIC ([1]; read-out: Minimum inhibitory concentration, C. difficile P21 (NR-32897)): 0.5 µg/mL (≈ 0.345 µM); MIC ([1]; read-out: Minimum inhibitory concentration, C. difficile P29 (NR-32903)): 0.5 µg/mL (≈ 0.345 µM); MIC ([1]; the rest of the C. difficile strains): 0.5 to 1 µg/mL (≈ 0.345 to 0.69 µM); MIC [4]: 1 µg/mL (≈ 0.69 µM); MIC [5]: > 128 µg/mL
CC(=O)CC(c1ccccc1)c1c(O)c2ccccc2oc1=O (stereo not drawn) [Warfarin] |  |  |  |  |  |  |  |  |  |  |  |  |  |  |  |  |  |  |  |  | efflux ratio at 2 h [6]: 1.54; Papp A→B at 2 h [6]: 12.7 ×10⁻⁶ cm/s; Papp B→A at 2 h [6]: 19.6 ×10⁻⁶ cm/s
